Laboratory results: patent publication US20240415819A1, “MACROCYCLIC COMPOUNDS AS PROTEASOME SUBUNIT BETA TYPE-5 INHIBITORS” (Lead Discovery Center GmbH, priority 2021, published 2024)
Where two headings read alike, the source gives them in different places.

How the values were obtained:
[1] = system: A549 (human lung carcinoma cell line); test: Glo assay of A549 cells (Table 3; ProteasomeGlo plating scheme); type: cell-based; details: A549 cells, read-out: PGLo A549
Method in brief: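 Cells plated in 384 wells; compound, DMSO, staurosporine transferred by ECHO; 105 min, 37° C., 5% CO2; Proteasome-Glo (Suc-LLVY-Glo) reagent added; dark 10-15 min; luminescence; IC50 nM.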

[2] = biological target: T1, β5 subunit of the human immunoproteasome (IPS) (Homo sapiens, UniProt P28062); test: β5 inhibition assay, human immunoproteasome (Suc-LLVY-AMC); type: biochemical; details: IC50 class, Suc-LLVY-AMC substrate
T1 construct: purchased Boston Biochem E-370
Method in brief: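 Human immunoproteasome (1 nM final) was preincubated 10 min at RT with compound in 100 mM HEPES pH 7.5, 50 mM NaCl, 0.02% SDS, 1 mM DTT. Suc-LLVY-AMC (22.6 μM final) was then added for 4 h at RT in the dark. After stopping with 1 μM bortezomib, AMC fluorescence was read (ex 355/em 460 nm).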

| SMILES | IC50 ([1]; Homo sapiens) | IC50 [2] | IC50 [1] |
| --- | --- | --- | --- |
| Cc1ccc2cc1CNC(=O)C(CCc1ccccc1)NC(=O)C(NC(=O)CCc1ccccc1)CC(=O)N1CCCC(CCO2)C1 [Compound 30, N-((9S,12S)-5^4-methyl-8,11,14-trioxo-9-phenethyl-4-oxa-7,10-diaza-1(3,1)-piperidina-5(1,3)-benzenacyclotetradecaphane-12-yl)-3-phenylpropanamide] |  | < 100 nM | < 100 nM |
| Cc1ccc2cc1CNC(=O)[C@H](CCc1ccccc1)NC(=O)[C@@H](NC(=O)Cc1ccccc1)CC(=O)N1CCCC(CCO2)C1 (stereo partly drawn) [Compound 29, N-((9S,12S)-5^4-methyl-8,11,14-trioxo-9-phenethyl-4-oxa-7,10-diaza-1(3,1)-piperidina-5(1,3)-benzenacyclotetradecaphane-12-yl)-2-phenylacetamide] | < 100 nM | < 100 nM |  |
| Cc1ccc2cc1CNC(=O)C(CCc1ccncc1)NC(=O)[C@@H](NC(=O)C1(c3ccc(N)cc3)CC1)CC(=O)N1CCCC(CCO2)C1 (stereo partly drawn) [Compound 343, 1-(4-aminophenyl)-N-((12S)-5^4-methyl-8,11,14-trioxo-9-(2-(pyridin-4-yl)ethyl)-4-oxa-7,10-diaza-1(3,1)-piperidina-5(1,3)-benzenacyclotetradecaphane-12-yl)cyclopropane-1-carboxamide] | < 100 nM | < 100 nM |  |
| COc1cccc(CC(=O)N[C@H]2CC(=O)N3CCCC(CCOc4ccc(C)c(c4)CNC(=O)C(c4cnn(C)c4)NC2=O)C3)c1 (stereo partly drawn) [Compound 362, 2-(3-methoxyphenyl)-N-((12S)-5^4-methyl-9-(1-methyl-1H-pyrazol-4-yl)-8,11,14-trioxo-4-oxa-7,10-diaza-1(3,1)-piperidina-5(1,3)-benzenacyclotetradecaphane-12-yl)acetamide] | < 100 nM | < 100 nM |  |
| Cc1ccc2cc1CNC(=O)[C@H](CCc1ccccc1)NC(=O)[C@@H](NC(=O)Cc1csc(N)n1)CC(=O)N1CCCC(CCO2)C1 (stereo partly drawn) [Compound 302, 2-(2-aminothiazol-4-yl)-N-((9S,12S)-5^4-methyl-8,11,14-trioxo-9-phenethyl-4-oxa-7,10-diaza-1(3,1)-piperidina-5(1,3)-benzenacyclotetradecaphane-12-yl)acetamide] | < 100 nM | < 100 nM |  |
| Cc1ccc2cc1CNC(=O)[C@H](CCc1ccccc1)NC(=O)[C@@H](NC(=O)OCc1ccccc1)CCC(=O)N1CCC(CCO2)C1 (stereo partly drawn) [Compound 350, benzyl ((9S,12S)-5^4-methyl-8,11,15-trioxo-9-phenethyl-4-oxa-7,10-diaza-1(3,1)-pyrrolidina-5(1,3)-benzenacyclopentadecaphane-12-yl)carbamate] | < 100 nM | < 100 nM |  |
| Cc1ccc2cc1CNC(=O)[C@H](CCc1ccccc1)NC(=O)[C@@H](NC(=O)Cc1cc(Cl)c(N)c(Cl)c1)CC(=O)N1CCCC(CCO2)C1 (stereo partly drawn) [Compound 320, 2-(4-amino-3,5-dichlorophenyl)-N-((9S,12S)-5^4-methyl-8,11,14-trioxo-9-phenethyl-4-oxa-7,10-diaza-1(3,1)-piperidina-5(1,3)-benzenacyclotetradecaphane-12-yl)acetamide] | < 100 nM | < 100 nM |  |
| Cc1ccc2cc1CNC(=O)[C@H](CCc1ccccc1)NC(=O)[C@@H](NC(=O)c1ccc3cc(N)ccc3c1)CC(=O)N1CCCC(CCO2)C1 (stereo partly drawn) [Compound 339, 6-amino-N-((9S,12S)-5^4-methyl-8,11,14-trioxo-9-phenethyl-4-oxa-7,10-diaza-1(3,1)-piperidina-5(1,3)-benzenacyclotetradecaphane-12-yl)-2-naphthamide] | 100 to 500 nM | < 100 nM |  |
| Cc1ccc2cc1CNC(=O)[C@H](CCc1ccccc1)NC(=O)[C@@H](NC(=O)OCc1ccccc1)CC(=O)N1CCCC3(CC(C3)O2)C1 [Compound 300] | 1000 to 5000 nM | < 100 nM |  |
| Cc1ccc2cc1CNC(=O)[C@H](CCc1ccccc1)NC(=O)[C@@H](NC(=O)OCc1ccccc1)CCCC(=O)N1CCCC3(CC(C3)O2)C1 [Compound 283, benzyl ((7S,10S)-34-methyl-6,9,14-trioxo-7-phenethyl-2-oxa-5,8-diaza-15(3,1)-piperidina-3(1,3)-benzena-1(1,3)-cyclobutanapentadecaphane-10-yl)carbamate] | 1000 to 5000 nM | < 100 nM |  |
| Cc1ccc2cc1CNC(=O)[C@H](CCc1ccccc1)NC(=O)[C@@H](NC(=O)Cc1cc(O)on1)CC(=O)N1CCCC(CCO2)C1 (stereo partly drawn) [Compound 335, 2-(5-hydroxyisoxazol-3-yl)-N-((9S,12S)-5^4-methyl-8,11,14-trioxo-9-phenethyl-4-oxa-7,10-diaza-1(3,1)-piperidina-5(1,3)-benzenacyclotetradecaphane-12-yl)acetamide] | < 100 nM | < 100 nM |  |

Second part, the molecule after the results:

| IC50 ([1]; Homo sapiens) | IC50 [2] | IC50 [1] | SMILES |
| --- | --- | --- | --- |
| < 100 nM | < 100 nM |  | Cc1ccc2cc1CNC(=O)[C@H](CCc1ccccc1)NC(=O)[C@@H](NC(=O)Cc1ccccc1C)CC(=O)N1CCCC(CCO2)C1 (stereo partly drawn) [Compound 373, N-((9S,12S)-5^4-methyl-8,11,14-trioxo-9-phenethyl-4-oxa-7,10-diaza-1(3,1)-piperidina-5(1,3)-benzenacyclotetradecaphane-12-yl)-2-(o-tolyl)acetamide] |
| < 100 nM | < 100 nM |  | CCOC(=O)N[C@H]1CC(=O)N2CCCC(CCOc3ccc(C)c(c3)CNC(=O)C(c3cnn(C)c3)NC1=O)C2 (stereo partly drawn) [Compound 363, Ethyl ((12S)-5^4-methyl-9-(1-methyl-1H-pyrazol-4-yl)-8,11,14-trioxo-4-oxa-7,10-diaza-1(3,1)-piperidina-5(1,3)-benzenacyclotetradecaphane-12-yl)carbamate] |
| < 100 nM | < 100 nM |  | Cc1ccc2cc1CNC(=O)C(CCc1ccc(C3(C)COC3)cc1)NC(=O)[C@@H](NC(=O)OCc1ccccc1)CC(=O)N1CCCC(CCO2)C1 (stereo partly drawn) [Compound 510, benzyl ((12S)-5^4-methyl-9-(4-(3-methyloxetan-3-yl)phenethyl)-8,11,14-trioxo-4-oxa-7,10-diaza-1(3,1)-piperidina-5(1,3)-benzenacyclotetradecaphane-12-yl)carbamate] |
| 100 to 500 nM | < 100 nM |  | CC(=O)N[C@H]1CC(=O)N2CCCC(CCOc3ccc(C)c(c3)CNC(=O)C(c3cn[nH]c3)NC1=O)C2 (stereo partly drawn) [Compound 562, N-((12S)-5^4-methyl-8,11,14-trioxo-9-(1H-pyrazol-4-yl)-4-oxa-7,10-diaza-1(3,1)-piperidina-5(1,3)-benzenacyclotetradecaphane-12-yl)acetamide] |
| < 100 nM | < 100 nM |  | CC(=O)N[C@H]1CC(=O)N2CCCC(CCOc3ccc(C)c(c3)CNC(=O)C(c3cc(C)n(C)n3)NC1=O)C2 (stereo partly drawn) [Compound 561, N-((12S)-9-(1,5-dimethyl-1H-pyrazol-3-yl)-5^4-methyl-8,11,14-trioxo-4-oxa-7,10-diaza-1(3,1)-piperidina-5(1,3)-benzenacyclotetradecaphane-12-yl)acetamide] |
| < 100 nM | < 100 nM |  | CC(=O)N[C@H]1CC(=O)N2CCCC(CCOc3ccc(C)c(c3)CNC(=O)C(c3cc(C)sn3)NC1=O)C2 (stereo partly drawn) [Compound 556, N-((12S)-5^4-methyl-9-(5-methylisothiazol-3-yl)-8,11,14-trioxo-4-oxa-7,10-diaza-1(3,1)-piperidina-5(1,3)-benzenacyclotetradecaphane-12-yl)acetamide] |
| < 100 nM | < 100 nM |  | Cc1ccc2cc1CNC(=O)C(CCc1ccc(S(=O)(=O)O)cc1)NC(=O)[C@@H](NC(=O)OCc1ccccc1)CC(=O)N1CCCC(CCO2)C1 (stereo partly drawn) [Compound 509, 4-(2-((12S)-12-(((benzyloxy)carbonyl)amino)-5^4-methyl-8,11,14-trioxo-4-oxa-7,10-diaza-1(3,1)-piperidina-5(1,3)-benzenacyclotetradecaphane-9-yl)ethyl)benzenesulfonic acid] |
| 100 to 500 nM | < 100 nM |  | Cc1ccc2cc1CNC(=O)C(CCc1ccccc1)NC(=O)[C@@H](NC(=O)OCc1ccccc1)CC(=O)N1CCCC(CCO2)C1 (stereo partly drawn) [Compound 503, benzyl ((12S)-9-phenethyl-5^4-methyl-8,11,14-trioxo-4-oxa-7,10-diaza-1(3,1)-piperidina-5(1,3)-benzenacyclotetradecaphane-12-yl)carbamate] |
| < 100 nM | < 100 nM |  | Cc1nc(C2NC(=O)[C@@H](NC(=O)OCc3ccccc3)CC(=O)N3CCCC(CCOc4ccc(C)c(c4)CNC2=O)C3)co1 (stereo partly drawn) [Compound 512, benzyl ((12S)-5^4-methyl-9-(2-methyloxazol-4-yl)-8,11,14-trioxo-4-oxa-7,10-diaza-1(3,1)-piperidina-5(1,3)-benzenacyclotetradecaphane-12-yl)carbamate] |
| 100 to 500 nM | < 100 nM |  | CC(=O)N[C@H]1CC(=O)N2CCCC(CCOc3ccc(C)c(c3)CNC(=O)C(CCc3cccnc3)NC1=O)C2 (stereo partly drawn) [Compound 549, N-((12S)-5^4-methyl-8,11,14-trioxo-9-(2-(pyridin-3-yl)ethyl)-4-oxa-7,10-diaza-1(3,1)-piperidina-5(1,3)-benzenacyclotetradecaphane-12-yl)acetamide] |
| < 100 nM | < 100 nM |  | Cc1ccc2cc1CNC(=O)C(CCc1cnccn1)NC(=O)[C@@H](NC(=O)Cc1ccc(N)cc1F)CC(=O)N1CCCC(CCO2)C1 (stereo partly drawn) [Compound 372, 2-(4-amino-2-fluorophenyl)-N-((9S,12S)-5^4-methyl-8,11,14-trioxo-9-(2-(pyrazin-2-yl)ethyl)-4-oxa-7,10-diaza-1(3,1)-piperidina-5(1,3)-benzenacyclotetradecaphane-12-yl) acetamide] |
| < 100 nM | < 100 nM |  | CC(=O)N[C@H]1CC(=O)N2CCCC(CCOc3ccc(C)c(c3)CNC(=O)C(c3cnn(CCC(=O)O)c3)NC1=O)C2 (stereo partly drawn) [Compound 567, 3-(4-((12S)-12-acetamido-5^4-methyl-8,11,14-trioxo-4-oxa-7,10-diaza-1(3,1)-piperidina-5(1,3)-benzenacyclotetradecaphane-9-yl)-1H-pyrazol-1-yl)propanoic acid] |
